Results as given in US10047051B2, “Substituted pyridines and method of use” (AbbVie S.á{acute over (.)}r.l., priority 2015, dated 2018).

Experiments:
CFTR G551D mutant = biological target: T1, CFTR G551D mutant (Homo sapiens, UniProt P13569, G551D); assay: YFP-halide influx assay for the CFTR-G551D mutation (HEK293 cells); assay type: cell-based; conditions: forskolin 10.67 μM
T1 construct: expressed in transfected cells; host or cells: HEK293 cells, reverse transfection with plasmids
How it was run: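 HEK293 cells reverse-transfected with CFTR G551D and halide-sensitive YFP (H148Q/I152L/F47L), expressed 24 h at 37 °C. YFP fluorescence quenching recorded for 7 s after I⁻ injection. Response = 1−F/F0; EC50 derived from 1−F/F0 vs compound concentration.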

CFTR ΔF508 mutant = biological target: T2, CFTR ΔF508 mutant (Homo sapiens, UniProt P13569, DEL508-508); assay: YFP-halide influx assay for the CFTR-ΔF508 mutation (CFBE41o- cells); assay type: cell-based; conditions: forskolin 10.67 μM; for EC50: from (1−F/F0) vs concentration plot
T2 construct: expressed in transfected cells; host or cells: CFBE41o- cells, adenoviral transduction
T2 sequence (P13569 with tags, fused parts or gaps DEL508-508): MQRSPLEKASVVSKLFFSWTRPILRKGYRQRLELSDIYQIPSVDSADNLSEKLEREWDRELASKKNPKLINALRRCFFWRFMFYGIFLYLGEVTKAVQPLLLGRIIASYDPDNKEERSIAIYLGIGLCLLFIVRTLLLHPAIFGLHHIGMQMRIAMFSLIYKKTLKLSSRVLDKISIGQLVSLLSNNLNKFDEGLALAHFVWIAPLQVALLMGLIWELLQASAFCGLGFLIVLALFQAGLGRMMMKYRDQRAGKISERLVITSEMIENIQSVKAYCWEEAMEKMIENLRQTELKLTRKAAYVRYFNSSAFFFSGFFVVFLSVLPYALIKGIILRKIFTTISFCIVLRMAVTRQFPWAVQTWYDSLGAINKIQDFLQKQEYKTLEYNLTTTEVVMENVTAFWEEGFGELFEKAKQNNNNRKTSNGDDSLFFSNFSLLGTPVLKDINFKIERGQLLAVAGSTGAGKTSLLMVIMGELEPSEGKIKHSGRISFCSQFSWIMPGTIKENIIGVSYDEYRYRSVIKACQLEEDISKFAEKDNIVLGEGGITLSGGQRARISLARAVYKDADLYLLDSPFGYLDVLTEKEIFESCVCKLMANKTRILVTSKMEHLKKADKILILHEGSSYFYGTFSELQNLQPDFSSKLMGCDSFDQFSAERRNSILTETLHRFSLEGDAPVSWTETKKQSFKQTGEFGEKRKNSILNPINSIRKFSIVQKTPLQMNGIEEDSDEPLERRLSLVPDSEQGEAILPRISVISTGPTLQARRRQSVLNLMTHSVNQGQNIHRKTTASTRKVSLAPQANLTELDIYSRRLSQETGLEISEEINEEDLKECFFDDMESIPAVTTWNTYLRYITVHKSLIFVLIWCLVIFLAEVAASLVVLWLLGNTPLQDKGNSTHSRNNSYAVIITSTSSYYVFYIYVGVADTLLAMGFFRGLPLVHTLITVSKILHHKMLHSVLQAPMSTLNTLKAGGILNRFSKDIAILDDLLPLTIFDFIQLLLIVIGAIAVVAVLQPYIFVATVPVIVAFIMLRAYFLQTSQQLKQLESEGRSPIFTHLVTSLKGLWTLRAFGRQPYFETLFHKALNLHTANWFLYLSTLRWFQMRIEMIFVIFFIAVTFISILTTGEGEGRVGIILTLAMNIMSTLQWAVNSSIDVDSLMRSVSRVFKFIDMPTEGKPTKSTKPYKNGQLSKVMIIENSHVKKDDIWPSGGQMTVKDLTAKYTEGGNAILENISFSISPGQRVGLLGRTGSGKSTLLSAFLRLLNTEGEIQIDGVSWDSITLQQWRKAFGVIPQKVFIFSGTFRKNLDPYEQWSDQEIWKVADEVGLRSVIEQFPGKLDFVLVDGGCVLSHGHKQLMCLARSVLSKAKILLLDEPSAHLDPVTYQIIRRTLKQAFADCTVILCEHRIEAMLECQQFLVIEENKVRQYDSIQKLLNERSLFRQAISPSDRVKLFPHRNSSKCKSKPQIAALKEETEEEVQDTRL
How it was run: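 CFBE41o- cells transduced with adenovirus expressing CFTR ΔF508 and halide-sensitive YFP H148Q/I152L/F47L, then held 24 h at 27° C or with a CFTR modulator 24 h at 37° C. Iodide-induced quench recorded 2 min; EC50 from (1−F/F0) at 36 s versus concentration.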

T1 sequence (P13569 whole entry G551D): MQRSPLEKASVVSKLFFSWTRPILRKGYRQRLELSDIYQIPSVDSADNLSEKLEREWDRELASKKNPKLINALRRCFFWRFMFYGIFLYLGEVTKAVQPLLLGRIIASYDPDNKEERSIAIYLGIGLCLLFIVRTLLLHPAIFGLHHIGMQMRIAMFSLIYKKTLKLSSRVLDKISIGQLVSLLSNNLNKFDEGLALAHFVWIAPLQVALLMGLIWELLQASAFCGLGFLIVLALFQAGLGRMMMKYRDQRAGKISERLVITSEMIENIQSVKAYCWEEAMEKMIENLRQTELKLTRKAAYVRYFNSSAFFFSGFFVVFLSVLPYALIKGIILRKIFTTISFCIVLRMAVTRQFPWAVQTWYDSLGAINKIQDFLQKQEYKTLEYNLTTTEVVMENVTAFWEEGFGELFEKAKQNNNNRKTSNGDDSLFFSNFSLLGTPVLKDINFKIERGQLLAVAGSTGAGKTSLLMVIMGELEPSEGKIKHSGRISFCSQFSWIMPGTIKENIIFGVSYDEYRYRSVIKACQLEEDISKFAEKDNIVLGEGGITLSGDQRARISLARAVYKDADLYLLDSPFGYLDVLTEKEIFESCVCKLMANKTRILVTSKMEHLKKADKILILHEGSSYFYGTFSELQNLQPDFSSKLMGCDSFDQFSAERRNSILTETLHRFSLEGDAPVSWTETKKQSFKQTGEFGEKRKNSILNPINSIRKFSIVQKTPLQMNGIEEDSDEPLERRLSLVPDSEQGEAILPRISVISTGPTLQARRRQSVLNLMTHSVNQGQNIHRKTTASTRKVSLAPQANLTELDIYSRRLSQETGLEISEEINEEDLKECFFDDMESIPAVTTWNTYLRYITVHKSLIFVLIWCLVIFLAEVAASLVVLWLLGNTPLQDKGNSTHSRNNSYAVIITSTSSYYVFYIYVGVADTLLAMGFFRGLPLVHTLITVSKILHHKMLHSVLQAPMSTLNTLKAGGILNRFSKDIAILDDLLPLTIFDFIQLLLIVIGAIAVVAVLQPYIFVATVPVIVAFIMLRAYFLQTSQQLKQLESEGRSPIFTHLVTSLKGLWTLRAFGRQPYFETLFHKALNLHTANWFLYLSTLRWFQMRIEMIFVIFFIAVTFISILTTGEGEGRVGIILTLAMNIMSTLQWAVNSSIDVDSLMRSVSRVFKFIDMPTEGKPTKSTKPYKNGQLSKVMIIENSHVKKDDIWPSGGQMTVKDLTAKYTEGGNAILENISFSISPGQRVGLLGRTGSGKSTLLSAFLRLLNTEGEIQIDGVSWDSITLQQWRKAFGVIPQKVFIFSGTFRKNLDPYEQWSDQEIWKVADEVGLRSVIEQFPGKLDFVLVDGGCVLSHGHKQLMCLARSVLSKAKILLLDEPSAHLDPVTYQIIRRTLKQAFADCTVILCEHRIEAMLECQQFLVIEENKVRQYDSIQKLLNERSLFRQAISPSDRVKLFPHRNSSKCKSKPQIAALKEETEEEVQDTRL

SMILES	% Activation (CFTR G551D mutant)	EC50 (CFTR G551D mutant)	% Activation (CFTR ΔF508 mutant)	EC50 (CFTR ΔF508 mutant)
COc1ccc(S(=O)(=O)c2cnc(C(=O)NCC(O)C(F)(F)F)c(N)c2)cc1 (stereo not shown) [Compound 220, 3-amino-5-[(4-methoxyphenyl)sulfonyl]-N-(3,3,3-trifluoro-2-hydroxypropyl)pyridine-2-carboxamide]	71.6%	791 nM	102.0%	16.9 nM
Nc1cc(S(=O)(=O)c2ccc(OC(F)(F)F)cc2)cnc1C(=O)NCC(=O)NC1CC1 [Compound 58, 3-amino-N-[2-(cyclopropylamino)-2-oxoethyl]-5-{[4-(trifluoromethoxy)phenyl]sulfonyl}pyridine-2-carboxamide]	42.3%	1070 nM	92.2%	20.6 nM
Nc1cc(S(=O)(=O)c2ccc(C(F)(F)F)cc2)cnc1C(=O)N[C@H]1CCC[C@@H]1O [Compound 215, 3-amino-N-[(1S,2S)-2-hydroxycyclopentyl]-5-{[4-(trifluoromethyl)phenyl]sulfonyl}pyridine-2-carboxamide]	57.6%	389 nM	109.8%	8.9 nM
Nc1cc(S(=O)(=O)c2ccc(OC(F)(F)F)cc2)cnc1C(=O)N[C@@H]1CCOC1 [Compound 128, 3-amino-N-[(3R)-tetrahydrofuran-3-yl]-5-{[4-(trifluoromethoxy)phenyl]sulfonyl}pyridine-2-carboxamide]	41.7%	> 10000 nM	95.0%	85.2 nM
Nc1cc(S(=O)(=O)c2ccc(OC(F)(F)F)cc2)cnc1C(=O)NCC1(O)CCOCC1 [Compound 29, 3-amino-N-[(4-hydroxytetrahydro-2H-pyran-4-yl)methyl]-5-{[4-(trifluoromethoxy)phenyl]sulfonyl}pyridine-2-carboxamide]	58.7%	1500 nM	94.1%	54.6 nM
CC(C)NC(=O)CNC(=O)c1ncc(S(=O)(=O)c2ccc(C(F)(F)F)cc2F)cc1N [Compound 113, 3-amino-5-{[2-fluoro-4-(trifluoromethyl)phenyl]sulfonyl}-N-[2-oxo-2-(propan-2-ylamino)ethyl]pyridine-2-carboxamide]	41.1%	297 nM	101.9%	10.4 nM

The next lines start with the values.

% Activation (CFTR G551D mutant)	EC50 (CFTR G551D mutant)	% Activation (CFTR ΔF508 mutant)	EC50 (CFTR ΔF508 mutant)	SMILES
1.5%	> 10000 nM	12.4%	> 2000 nM	CN1CCC(O)(CNC(=O)c2ncc(S(=O)(=O)c3ccc(C(F)(F)F)cc3)cc2N)CC1 [Compound 230, 3-amino-N-[(4-hydroxy-1-methylpiperidin-4-yl)methyl]-5-{[4-(trifluoromethyl)phenyl]sulfonyl}pyridine-2-carboxamide]
85%	518 nM	109%	53 nM	NC(=O)c1ncc(S(=O)(=O)c2ccc(OC(F)(F)F)cc2)cc1N [Compound 297, 3-amino-5-{[4-(trifluoromethoxy)phenyl]sulfonyl}pyridine-2-carboxamide]
77.2%	364 nM	115.5%	3.6 nM	Nc1cc(S(=O)(=O)c2cccc(OC(F)(F)F)c2)cnc1C(=O)NCC(O)C(F)(F)F (stereo not shown) [Compound 236, 3-amino-N-(3,3,3-trifluoro-2-hydroxypropyl)-5-{[3-(trifluoromethoxy)phenyl]sulfonyl}pyridine-2-carboxamide]
56.0%	1450 nM	106.0%	5 nM	Nc1cc(S(=O)(=O)c2cccc(F)c2)cnc1C(=O)NC[C@@H](O)C(F)(F)F [Compound 254, 3-amino-5-[(3-fluorophenyl)sulfonyl]-N-[(2R)-3,3,3-trifluoro-2-hydroxypropyl]pyridine-2-carboxamide]
